“And” between values parts separate entries of the source, which are not always exact repeats. Equal values may be shown once. “Also recorded” adds a separate entry of the source.
Key:
[1] = test system: cisplatin-induced acute kidney damage in mice; test: Example 11: renal pathology (HE, PAS) and pathological scoring; type: in vivo, C57BL/6J mice; conditions: bid, listed as R01
Description: 42 male C57BL/6J mice (age: 6 to 8 weeks, body weight 18-20 g, certificate number: 11400700238365) were purchased from Si Pei Fu (Beijing) Biotechnology Co., Ltd., and raised in an SPF-grade animal room of the Institute of Materia Medica, Chinese Academy of Medical Sciences, at a temperature of 20 to 25° C., a relative humidity of 40% to 70%, and a cycle of 12 hours of light and 12 hours of dark. The animals had free access to water and food. After 3 days of normal feeding, mice with good physical conditions after the veterinary examination were selected for this assay. Before grouping, a marker was used to mark on the base of the animals' tail. After grouping, each animal was marked with an ear cutout (7 mice in each group).
Assay animals: 42 7-week-old male C57 mice were used for animal testing after an adaptive feeding.
Group 1: blank control group;
The preparation of the R01 formulation administration test solution was the same as that in Example 5: an appropriate amount of the R01 formulation was weighed according to the three dosages set in the assay, respectively, and an appropriate volume of 0.5% CMC-Na aqueous solution was added. The mixture was vortexed and sonicated until mixed evenly, to give the administration test solutions with concentrations of […], respectively, which were ready for use.
Animal testing period: 7 days (excluding adaptive feeding), hereinafter referred to as: D1-D7.
1. […]
The body weight of the animals when being grouped for administration in each group was recorded. The body weight and the kidney weight at the end of the assay were also recorded, and the kidney coefficient was calculated. The creatinine and urea nitrogen values in the blood samples sent for testing were recorded. […]

A549 cells = test: Flow cytometry for apoptosis detection (Annexin V-FITC/PI), A549; type: cell-based, human; conditions: 72 h
Description: (1) Cells were inoculated in a 6-well plate. When the cell growth density was appropriate, four concentrations (0 μM, 10 μM, 30 μM, and 90 μM) of the compound of formula (I) were added, and placed in an incubator at 37° C. with 5% CO2 to continue culturing for 72 hours.
(2) After reaching the designated time point, the cell culture plate was taken out from the incubator, and placed in a biological safety cabinet. A 4 ml centrifuge tube was taken and marked. The supernatant in the 6-well plate was pipetted out and added to the corresponding 4 ml centrifuge tube. The cells were gently washed with PBS, and the PBS was added to the corresponding centrifuge tube. An appropriate amount of trypsin was added to each well to digest the cells. When the cells were digested to a moderate degree, the liquid in the centrifuge tube was added to the corresponding well. The cells were gently pipetted with a pipette to disperse the cells, and was pipetted back into the original centrifuge tube. The tube was immediately centrifuged at 1500 rpm for 5 minutes. Then, the supernatant was discarded and the precipitate was retained.
(3) 2 ml of PBS was added to the centrifuge tube, which was centrifuged again at 1000 rpm for 5 minutes. The supernatant was discarded. This step was repeated again.
(4) The cells were suspended with 1× Binding buffer, and the cell concentration was adjusted to approximately 1×10^6 cells/ml. 100 μl of cell suspension was added to the flow cytometry tube, and 5 μl of PI and 5 μl of Annexin V-FITC were added to each tube. The cells were gently vortexed, and incubated at room temperature in dark for 15 min.
(5) 400 μl of 1× Binding buffer was further added to each tube, and the detection was performed on the flow cytometer (the detection was in need to be completed within 1 hour).
We used AnnexinV-FITC and PI double staining method for apoptosis staining. FL1 channel was selected for FITC, and FL2 channel was selected for PI. Flow cytometry analysis was used to detect cell apoptosis. Q1, Q2, Q3, and Q4 represented dead cells, late apoptotic cells, early apoptotic cells, and normal cells, respectively (FIG. 7). After treating A549 and NCI-H460 cells with the compound of formula (I) at different concentrations (0 μM, 10 μM, 30 μM, and 90 μM) for 72 h, the flow cytometry results are as follows. Table 1 and Table 2 show the proportions of dead cells, late apoptotic cells, early apoptotic cells, and normal cells after treating the A549 and NCI-H460 cells with different concentrations of the compound of formula (I), respectively.

[2] = Example 10: body weight of HT-29 tumor-bearing nude mice; type: in vivo; conditions: HT-29 model, DDP 5 mg/kg i.p. QW × 3, R01 18 mg/kg i.g. BID × 28
Description: On D1 of the assay, the HT-29 cells in the logarithmic growth phase were collected, counted and resuspended in serum-free McCoy, and the cell concentration was adjusted to 4×10^7 cells/mL. The cells were pipetted with a pipette to disperse them evenly, and the cells were put into a 50-mL centrifuge tube, which was placed in an ice box. A 1-mL syringe was used to draw the cell suspension, which was injected subcutaneously into the axilla of the front right limb of a nude mouse. Each animal was inoculated with 100 μL (4×10^6 cells/mouse) to establish a HT-29 transplanted tumor model in nude mice. After the inoculation, the animal status and tumor growth were regularly observed. On D12, the tumor diameter was measured using an electronic vernier caliper. The data were input into an Excel spreadsheet to calculate the tumor volume. Tumor-bearing mice in good health and with similar tumor volumes (103 to 179 mm^3) were selected and divided into groups using randomized block method. After the start of the assay, the tumor diameter was measured regularly, the tumor volume was calculated, and the animal body weight was also weighed and recorded.

COC1=C(OC)C(=O)C(CCCCCCCCCCOC(=O)Cc2c(C)n(C(=O)c3ccc(Cl)cc3)c3ccc(OC)cc23)=C(C)C1=O [compound of formula (I)]
pathological damage of kidneys ([1]; cisplatin 10 mg/kg + R01 6 mg): severe renal tubular damage, epithelial cell necrosis and slight protein casts and 2 animals suffered serious kidney damage, and the others were mildly damaged and significantly reduced
pathological damage of kidneys ([1]; cisplatin 10 mg/kg + R01 36 mg): Only one mouse in this group showed slight pathological damage to the kidney; also recorded: basically complete kidney tissue morphology, slight damage
Q1 Gated % (dead cells) (A549 cells; 10 μM): 1.07 ± 0.51%
Q2 Gated % (late apoptotic cells) (A549 cells; 10 μM): 2.57 ± 0.48%
Q3 Gated % (early apoptotic cells) (A549 cells; 10 μM): 1.86 ± 0.37%
Q4 Gated % (normal cells) (A549 cells; 10 μM): 94.5 ± 0.57%
percentage of apoptosis (total apoptosis) (A549 cells; 10 μM): 4.43 ± 0.11
Q1 Gated % (dead cells) (A549 cells; 30 μM): 1.34 ± 0.19%
Q2 Gated % (late apoptotic cells) (A549 cells; 30 μM): 3.08 ± 0.16%
Q3 Gated % (early apoptotic cells) (A549 cells; 30 μM): 2.58 ± 1.38%
Q4 Gated % (normal cells) (A549 cells; 30 μM): 93.05 ± 1.34%
percentage of apoptosis (total apoptosis) (A549 cells; 30 μM): 5.65 ± 1.54
Q1 Gated % (dead cells) (A549 cells; 90 μM): 0.31 ± 0.14%
Q2 Gated % (late apoptotic cells) (A549 cells; 90 μM): 20.9 ± 3.39%
Q3 Gated % (early apoptotic cells) (A549 cells; 90 μM): 50.4 ± 1.41%
Q4 Gated % (normal cells) (A549 cells; 90 μM): 28.4 ± 4.67%
percentage of apoptosis (total apoptosis) (A549 cells; 90 μM): 71.3 ± 4.81

N.N.[Cl][Pt][Cl] [DDP, cisplatin]
Mean animal body weight ± SE ([2]; D 12 (grouping)): 17.6 ± 0.3 g
Mean animal body weight ± SE ([2]; D 15): 17.2 ± 0.2 g
body weight loss rate ([2]; D 15): (2.6%)
Mean animal body weight ± SE ([2]; D 19): 16.9 ± 0.3 g
body weight loss rate ([2]; D 19): (3.9%)
Mean animal body weight ± SE ([2]; D 22): 16.3 ± 0.3 g
body weight loss rate ([2]; D 22): (7.4%)
Mean animal body weight ± SE ([2]; D 26): 15.8 ± 0.4 g
body weight loss rate ([2]; D 26): (10%)
Mean animal body weight ± SE ([2]; D 29): 15.3 ± 0.3 g
body weight loss rate ([2]; D 29): (13%)
Mean animal body weight ± SE ([2]; D 33): 14.8 ± 0.4 g
body weight loss rate ([2]; D 33): (16%)
Mean animal body weight ± SE ([2]; D 36): 14.8 ± 0.4 g
body weight loss rate ([2]; D 36): (16%)
Mean animal body weight ± SE ([2]; D 40): 14.9 ± 0.4 g
body weight loss rate ([2]; D 40): (15%)

Reference: US20250270170A1, “2,3-DIMETHOXY-5-METHYL-1,4-BENZOQUINONE ALKYL ALCOHOL DERIVATIVE AND USE THEREOF” (BEIJING ANJIANXI BIO-MEDICAL TECHNOLOGY CO., LTD., priority 2021, published 2025)
